Source: patent US11453683B1, “KRas G12D inhibitors” (Mirati Therapeutics, Inc., priority 2019, dated 2022)
Where a name gives a salt, the structure may show the parent alone.

These molecules were tested on KRas G12D-mediated phosphorylation of ERK (assay: Inhibition of KRas G12D-mediated phosphorylation of ERK in AGS cells). Details: Homo sapiens; AGS cells expressing G12D, 3 hours, phospho-ERK normalized to GAPDH.
Assay type: cell-based
Method in brief: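 Fixed, methanol-permeabilized; phospho-ERK (Thr202/Tyr204) by in-cell immunofluorescence normalized to GAPDH. Percent of DMSO control, IC50 by 4-parameter fit.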

**Q.** Which IC50 does the source give for `Fc1c(-c2ccccc2C(F)(F)F)ncc2c(N3C[C@H]4CC[C@@H](C3)N4)nc(OCC34CCCN3CCC4)nc12` [Example 370, 4-((1R,5S)-3,8-diazabicyclo[3.2.1]octan-3-yl)-8-fluoro-2-((tetrahydro-1H-pyrrolizin-7a(5H)-yl)methoxy)-7-(2-(trifluoromethyl)phenyl)pyrido[4,3-d]pyrimidine] here?
**A.** Its IC50 is 10700 nM.

**Q.** Which IC50 does the source give for `Oc1cc(-c2ncc3c(N4C[C@H]5CC[C@@H](C4)N5)nc(OCC45CCCN4CCC5)nc3c2F)c2ccccc2c1` [Example 109, 4-(4-((1R,5S)-3,8-diazabicyclo[3.2.1]octan-3-yl)-8-fluoro-2-((tetrahydro-1H-pyrrolizin-7a(5H)-yl)methoxy)pyrido[4,3-d]pyrimidin-7-yl)naphthalen-2-ol bis(2,2,2-trifluoroacetate)] here?
**A.** Its IC50 is 330 nM.

**Q.** Which IC50 does the source give for `Oc1ccc(OC(F)(F)F)c(-c2ncc3c(N4C[C@H]5CC[C@@H](C4)N5)nc(OCC45CCCN4CCC5)nc3c2F)c1` [Example 341, 3-(4-((1R,5S)-3,8-diazabicyclo[3.2.1]octan-3-yl)-8-fluoro-2-((tetrahydro-1H-pyrrolizin-7a(5H)-yl)methoxy)pyrido[4,3-d]pyrimidin-7-yl)-4-(trifluoromethoxy)phenol] here?
**A.** Its IC50 is 837 nM.

**Q.** `C#Cc1c(F)ccc2cc(O)cc(-c3ncc4c(N5C[C@H]6CC[C@@H](C5)N6)nc(OCC56CCCN5CCC6)nc4c3F)c12` [Example 232, 4-(4-((1R,5S)-3,8-diazabicyclo[3.2.1]octan-3-yl)-8-fluoro-2-((tetrahydro-1H-pyrrolizin-7a(5H)-yl)methoxy)pyrido[4,3-d]pyrimidin-7-yl)-5-ethynyl-6-fluoronaphthalen-2-ol] was tested. Which IC50 did it give?
**A.** The IC50 was 15.2 nM.

**Q.** How did the IC50 turn out when `C#Cc1cccc2cccc(-c3ncc4c(N5C[C@H]6CC[C@@H](C5)N6)nc(OC[C@]56CCCN5C[C@@H](F)C6)nc4c3F)c12` [Example 205, 4-((1R,5S)-3,8-diazabicyclo[3.2.1]octan-3-yl)-7-(8-ethynylnaphthalen-1-yl)-8-fluoro-2-(((2S,7aR)-2-fluorotetrahydro-1H-pyrrolizin-7a(5H)-yl)methoxy)pyrido[4,3-d]pyrimidine] was run?
**A.** Its IC50 is 242 nM.

**Q.** Which IC50 does the source give for `CCc1c(F)ccc2cc(O)cc(-c3ncc4c(N5C[C@H]6CC[C@@H](C5)N6)nc(OC[C@]56CCCN5[C@@H](COC(=O)N(C)C)CC6)nc4c3F)c12` [Example 441, ((3R,7aR)-7a-(((4-((1R,5S)-3,8-diazabicyclo[3.2.1]octan-3-yl)-7-(8-ethyl-7-fluoro-3-hydroxynaphthalen-1-yl)-8-fluoropyrido[4,3-d]pyrimidin-2-yl)oxy)methyl)hexahydro-1H-pyrrolizin-3-yl)methyl dimethylcarbamate] here?
**A.** Its IC50 is 4.1 nM.

**Q.** `Fc1c(-c2cccc3cccc(Cl)c23)ncc2c(N3CC4CCC(C3)N4)nc(OC[C@@]34CCCN3C[C@@H](C(F)(F)F)C4)nc12` (mixture of isomers) [Example 382, 4-((1R,5S)-3,8-diazabicyclo[3.2.1]octan-3-yl)-7-(8-chloronaphthalen-1-yl)-8-fluoro-2-(((2S,7aS)-2-(trifluoromethyl)tetrahydro-1H-pyrrolizin-7a(5H)-yl)methoxy)pyrido[4,3-d]pyrimidine) (mixture of cis diastereomers)] was tested. Which IC50 did it give?
**A.** Its IC50 is over 16700 nM.

**Q.** For `CN1CCC[C@H]1COc1nc(N2C[C@H]3CC[C@@H](C2)N3)c2cnc(-c3cc(O)cc4ccccc34)cc2n1` [Example 1, 4-(4-((1R,5S)-3,8-diazabicyclo[3.2.1]octan-3-yl)-2-(((S)-1-methylpyrrolidin-2-yl)methoxy)pyrido[4,3-d]pyrimidin-7-yl)naphthalen-2-ol tris-hydrochloride salt], which IC50 is on record?
**A.** Its IC50 is 3160 nM.

**Q.** With `O=C(OC[C@H]1CC[C@@]2(COc3nc(N4CC5CCC(C4)N5)c4cnc(-c5cccc6cccc(Cl)c56)c(F)c4n3)CCCN12)N1CCOCC1` [Example 445, ((3R,7aR)-7a-(((4-(3,8-diazabicyclo[3.2.1]octan-3-yl)-7-(8-chloronaphthalen-1-yl)-8-fluoropyrido[4,3-d]pyrimidin-2-yl)oxy)methyl)hexahydro-1H-pyrrolizin-3-yl)methyl morpholine-4-carboxylate] as the molecule, how does the IC50 read?
**A.** Its IC50 is 130 nM.

**Q.** `Oc1cc(-c2ncc3c(N4C[C@H]5CC[C@@H](C4)N5)nc(OCCC(F)(F)F)nc3c2F)c2ccccc2c1` [Example 81, 4-(4-((1R,5S)-3,8-diazabicyclo[3.2.1]octan-3-yl)-8-fluoro-2-(3,3,3-trifluoropropoxy)pyrido[4,3-d]pyrimidin-7-yl)naphthalen-2-ol] was tested. Which IC50 did it give?
**A.** The IC50 was 8290 nM.

**Q.** `Fc1c(-c2cncc3cccc(Cl)c23)ncc2c(N3C[C@H]4CC[C@@H](C3)N4)nc(OC[C@]34CCCN3C[C@@H](F)C4)nc12` [Example 203, 4-((1R,5S)-3,8-diazabicyclo[3.2.1]octan-3-yl)-7-(5-chloroisoquinolin-4-yl)-8-fluoro-2-(((2S,7aR)-2-fluorotetrahydro-1H-pyrrolizin-7a(5H)-yl)methoxy)pyrido[4,3-d]pyrimidine] was tested. Which IC50 did it give?
**A.** The IC50 was 2180 nM.

**Q.** How did the IC50 turn out when `Fc1c(-c2cccc3cccc(CC(F)F)c23)ncc2c(N3C[C@H]4CC[C@@H](C3)N4)nc(OCC34CCCN3CCC4)nc12` [Example 247, 4-((1R,5S)-3,8-diazabicyclo[3.2.1]octan-3-yl)-7-(8-(2,2-difluoroethyl)naphthalen-1-yl)-8-fluoro-2-((hexahydro-1H-pyrrolizin-7a-yl)methoxy)pyrido[4,3-d]pyrimidine] was run?
**A.** The IC50 was 4310 nM.

**Q.** How did the IC50 turn out when `O[C@@H]1C[C@@H]2CN(c3nc(OC[C@@]45CCCN4C[C@H](F)C5)nc4c(F)c(-c5cccc6cccc(Cl)c56)ncc34)C[C@H]1N2` [Example 395, (1R,5R,6R)-3-(7-(8-chloronaphthalen-1-yl)-8-fluoro-2-((2-fluorotetrahydro-1H-pyrrolizin-7a(5H)-yl)methoxy)pyrido[4,3-d]pyrimidin-4-yl)-3,8-diazabicyclo[3.2.1]octan-6-ol] was run?
**A.** The IC50 was 1090 nM.

**Q.** For `Oc1ccc(OC(F)(F)F)c(-c2ncc3c(N4CC5CCC(C4)N5)nc(OCC45CCCN4C[C@H](F)C5)nc3c2F)c1` (mixture of isomers) [Example 340, 3-(4-((1R,5S)-3,8-diazabicyclo[3.2.1]octan-3-yl)-8-fluoro-2-((2-fluorotetrahydro-1H-pyrrolizin-7a(5H)-yl)methoxy)pyrido[4,3-d]pyrimidin-7-yl)-4-(trifluoromethoxy)phenol], which IC50 is on record?
**A.** Its IC50 is 51.5 nM.

**Q.** Which IC50 does the source give for `O[C@@H]1C[C@@H]2CN(c3nc(N4CCC4)nc4c(F)c(-c5cccc6cccc(Cl)c56)ncc34)C[C@H]1N2` [Example 152, (1R,5R,6R)-3-(2-(azetidin-1-yl)-7-(8-chloronaphthalen-1-yl)-8-fluoropyrido[4,3-d]pyrimidin-4-yl)-3,8-diazabicyclo[3.2.1]octan-6-ol] here?
**A.** Its IC50 is over 50000 nM.

**Q.** For `CN1CCC[C@H]1COc1nc(N2CC3CCC(CCC#N)(C2)N3)c2cnc(-c3cc(O)cc4ccccc34)c(F)c2n1` (stereo partly drawn) [Example 157, 3-(3-(8-fluoro-7-(3-hydroxynaphthalen-1-yl)-2-(((S)-1-methylpyrrolidin-2-yl)methoxy)pyrido[4,3-d]pyrimidin-4-yl)-3,8-diazabicyclo[3.2.1]octan-1-yl)propanenitrile bis(2,2,2-trifluoroacetate)], which IC50 is on record?
**A.** The IC50 was 8000 nM.

**Q.** How did the IC50 turn out when `Oc1cc(Cl)c(C(F)(F)F)c(-c2ncc3c(N4C[C@H]5CC[C@@H](C4)N5)nc(OC[C@@]45CCCN4C[C@H](F)C5)nc3c2F)c1` [Example 284, 3-(4-((1R,5S)-3,8-diazabicyclo[3.2.1]octan-3-yl)-8-fluoro-2-(((2R,7aS)-2-fluorohexahydro-1H-pyrrolizin-7a-yl)methoxy)pyrido[4,3-d]pyrimidin-7-yl)-5-chloro-4-(trifluoromethyl)phenol] was run?
**A.** Its IC50 is 17.4 nM.

**Q.** Which IC50 does the source give for `OCCCOc1nc(N2C[C@H]3CC[C@@H](C2)N3)c2cnc(-c3cc(O)cc4ccccc34)c(F)c2n1` [Example 75, 4-(4-((1R,5S)-3,8-diazabicyclo[3.2.1]octan-3-yl)-8-fluoro-2-(3-hydroxypropoxy)pyrido[4,3-d]pyrimidin-7-yl)naphthalen-2-ol] here?
**A.** Its IC50 is over 16700 nM.

**Q.** `Cc1ccc2cccc(-c3ncc4c(N5C[C@H]6CC[C@@H](C5)N6)nc(OC[C@@H]5CCCN5C)nc4c3F)c2c1` [Example 321, 4-((1R,5S)-3,8-diazabicyclo[3.2.1]octan-3-yl)-8-fluoro-7-(7-methylnaphthalen-1-yl)-2-(((S)-1-methylpyrrolidin-2-yl)methoxy)pyrido[4,3-d]pyrimidine] was tested. Which IC50 did it give?
**A.** The IC50 was over 16700 nM.

**Q.** How did the IC50 turn out when `Cc1cccc2cccc(-c3ncc4c(N5C[C@H]6CC[C@@H](C5)N6)nc(OCC56CCCN5CCC6)nc4c3F)c12` [Example 334, 4-((1R,5S)-3,8-diazabicyclo[3.2.1]octan-3-yl)-8-fluoro-7-(8-methylnaphthalen-1-yl)-2-((tetrahydro-1H-pyrrolizin-7a(5H)-yl)methoxy)pyrido[4,3-d]pyrimidine] was run?
**A.** Its IC50 is 2910 nM.

**Q.** Which IC50 does the source give for `CC(C)c1ccc(O)cc1-c1ncc2c(N3C[C@H]4CC[C@@H](C3)N4)nc(OCC34CCCN3CCC4)nc2c1F` [Example 403, 3-(4-((1R,5S)-3,8-diazabicyclo[3.2.1]octan-3-yl)-8-fluoro-2-((tetrahydro-1H-pyrrolizin-7a(5H)-yl)methoxy)pyrido[4,3-d]pyrimidin-7-yl)-4-isopropylphenol] here?
**A.** The IC50 was 2880 nM.

**Q.** Which IC50 does the source give for `OCC(CO)COc1nc(N2C[C@H]3CC[C@@H](C2)N3)c2cnc(-c3cccc4cccc(Cl)c34)c(F)c2n1` [Example 35, 2-(((4-((1R,5S)-3,8-diazabicyclo[3.2.1]octan-3-yl)-7-(8-chloronaphthalen-1-yl)-8-fluoropyrido[4,3-d]pyrimidin-2-yl)oxy)methyl)propane-1,3-diol] here?
**A.** The IC50 was 11300 nM.

**Q.** With `CO[C@H]1CN[C@H](COc2nc(N3C[C@H]4CC[C@@H](C3)N4)c3cnc(-c4cccc5cccc(Cl)c45)c(F)c3n2)C1` [Example 351] as the molecule, how does the IC50 read?
**A.** Its IC50 is over 16700 nM.

**Q.** How did the IC50 turn out when `C#CCc1ccc(O)cc1-c1ncc2c(N3C[C@H]4CC[C@@H](C3)N4)nc(OCC34CCCN3CCC4)nc2c1F` [Example 279, 3-(4-((1R,5S)-3,8-diazabicyclo[3.2.1]octan-3-yl)-8-fluoro-2-((hexahydro-1H-pyrrolizin-7a-yl)methoxy)pyrido[4,3-d]pyrimidin-7-yl)-4-(prop-2-yn-1-yl)phenol] was run?
**A.** Its IC50 is 7400 nM.
